In patent publication US4546176A, “7-Carboxymethoxyphenylacetamido-3-cephem derivatives and antibacterial preparations containing the same” (Eisai Co., Ltd., priority 1982, dated 1985):
≈ marks a conversion by molar mass, not a printed value.

Key:
Staph. aureus 209-P = assay: Antibacterial activities (MIC), Staph. aureus 209-P; assay type: cell-based; details: Staphylococcus aureus
Description: (§1) (1) Antibacterial activities (MIC):

Escher. coli NIHJ = assay: Antibacterial activities (MIC), Escher. coli NIHJ; assay type: cell-based; details: Escherichia coli
Description: as §1

Kleb. pneumoniae EK-6 = assay: Antibacterial activities (MIC), Kleb. pneumoniae EK-6; assay type: cell-based; details: Klebsiella pneumoniae, EK6
Description: as §1

Proteus morganii EP-14 = assay: Antibacterial activities (MIC), Proteus morganii EP-14; assay type: cell-based; details: Morganella morganii, EP14
Description: as §1

Pseud. aeruginosa EP-01 = assay: Antibacterial activities (MIC), Pseud. aeruginosa EP-01; assay type: cell-based; details: Pseudomonas aeruginosa, EP01
Description: as §1

Ser. marcescens ES-75 = assay: Antibacterial activities (MIC), Ser. marcescens ES-75; assay type: cell-based; details: Serratia marcescens, ES75
Description: as §1

[1] = Urinary excretion rate in mice; assay type: in vivo, ICR male mice; details: mouse, sc, 20 mg/kg subcutaneous, urine up to 6 hours, bioassay
Experimental: ICR male mice (body weight: 20-30 g) were used. Each compound was dissolved in an M/15 phosphate buffer (pH 7.0) and administered in an amount of 20 mg/kg by the subcutaneous route. Urine was collected up to 6 hours after the administration. The concentration of the compound was determined by the bioassey technique (the agar-well method) using Pseudomonas aeruginosa as a test microorganism. On the basis of the thus-determined concentration, its excreted amount was obtained. The urinary excretion rate was then calculated from the excreted amount based on the amount administered.

Solubility in water = assay type: physicochemical; details: in distilled water at 25° C.

| Compound | MIC (Staph. aureus 209-P) [µg/mL] | MIC (Escher. coli NIHJ) [µg/mL] | MIC (Kleb. pneumoniae EK-6) [µg/mL] | MIC (Proteus morganii EP-14) [µg/mL] | MIC (Pseud. aeruginosa EP-01) [µg/mL] | MIC (Ser. marcescens ES-75) [µg/mL] | dose excreted at 6 h [1] [%] | solubility (Solubility in water) [mg/mL] |
| --- | --- | --- | --- | --- | --- | --- | --- | --- |
| Cc1oc2cc(O)c(O)cc2c(=O)c1C(=O)N[C@@H](C(=O)N[C@@H]1C(=O)N2C(C(=O)[O-])=C(C[n+]3ccccc3)CS[C@H]12)c1ccc(OCC(=O)O)cc1 [Example 40, Sodium 7β-[D-2-(4-carboxymethoxyphenyl)-2-(6,7-dihydroxy-2-methyl-4-oxo-4H-1-benzopyran-3-carboxamido)acetamido]-3-pyridiniummethyl-3-cephem-4-carboxylate] | 100 | 0.8 | 0.1 | 12.5 | 0.2 | 0.6 | 39 | ≥ 300 |
| Cn1nnnc1SCC1=C(C(=O)O)N2C(=O)[C@@H](NC(=O)[C@H](NC(=O)c3coc4cc(O)c(O)cc4c3=O)c3ccc(OCC(=O)O)cc3)[C@H]2SC1 [Example 4, Disodium 7β-[D-2-(4-carboxymethoxyphenyl)-2-(6,7-dihydroxy-4-oxo-4H-1-benzopyran-3-carboxamido)-acetamido]-3-(1-methyl-5-tetrazolyl)thiomethyl-3-cephem-4-carboxylate] | 6.25 | 0.8 | ≤ 0.05 | 0.8 | ≤ 0.05 | 0.2 | – | ≥ 200 |
| O=C(O)COc1ccc([C@@H](NC(=O)c2coc3cc(O)c(O)cc3c2=O)C(=O)N[C@@H]2C(=O)N3C(C(=O)O)=C(CSc4nnnn4CC(=O)O)CS[C@H]23)cc1 [Example 8, Trisodium 7β-[D-2-(4-carboxymethoxyphenyl)-2-(6,7-dihydroxy-4-oxo-4H-1-benzopyran-3-carboxamido)-acetamido]-3-(1-carboxymethyl-5-tetrazolyl)thiomethyl-3-cephem-4-carboxylate] | 50 | 0.8 | ≤ 0.05 | 1.56 | 0.1 | 0.2 | 20 | ≥ 300 |
| CC(=O)OCC1=C(C(=O)O)N2C(=O)[C@@H](NC(=O)[C@H](NC(=O)c3coc4cc(O)c(O)cc4c3=O)c3ccc(OCC(=O)O)cc3)[C@H]2SC1 [Example 2] | – | – | – | – | – | – | – | ≥ 200 |
| O=C(O)COc1ccc([C@@H](NC(=O)c2coc3cc(O)c(O)cc3c2=O)C(=O)N[C@@H]2C(=O)N3C(C(=O)[O-])=C(C[n+]4ccccc4)CS[C@H]23)cc1 [Example 44, Sodium 7β-[D-2-(4-carboxymethoxyphenyl)-2-(6,7-dihydroxy-4-oxo-4H-1-benzopyran-3-carboxamido)-acetamido]-3-pyridiniummethyl-3-cephem-4-carboxylate] | 25 | 0.8 | ≤ 0.05 | 25 | 0.1 | 0.8 | 40 | ≥ 300 |
| CO[C@@]1(NC(=O)[C@H](NC(=O)c2c(C)oc3cc(O)c(O)cc3c2=O)c2ccc(OCC(=O)O)cc2)C(=O)N2C(C(=O)[O-])=C(C[n+]3ccc(C(N)=O)cc3)CS[C@@H]21 [Example 49, 7β-[D-2-(4-Carboxymethoxyphenyl)-2-(6,7-dihydroxy-2-methyl-4-oxo-4H-1-benzopyran-3-carboxamido)-acetamido]-7α-methoxy-3-(4-carbamoylpyridinium)-methyl-3-cephem-4-carboxylate] | – | – | – | – | – | – | 35 | – |
| O=C(O)COc1ccc([C@@H](NC(=O)c2coc3cc(O)c(O)cc3c2=O)C(=O)N[C@@H]2C(=O)N3C(C(=O)[O-])=C(C[n+]4ccc(CCS(=O)(=O)O)cc4)CS[C@H]23)cc1 [Example 46, Disodium 7β-[D-2-(4-carboxymethoxyphenyl)-2-(6,7-dihydroxy-4-oxo-4H-1-benzopyran-3-carboxamido)-acetamido]-3-[4-(2-sulfoethyl)pyridinium]methyl-3-cephem-4-carboxylate] | 50 | 0.4 | ≤ 0.05 | 25 | 0.4 | 0.8 | 62 | ≥ 300 |
| NC(=O)c1cc[n+](CC2=C(C(=O)[O-])N3C(=O)[C@@H](NC(=O)[C@H](NC(=O)c4coc5cc(O)c(O)cc5c4=O)c4ccc(OCC(=O)O)cc4)[C@H]3SC2)cc1 [Example 45, Sodium 7β-[D-2-(4-carboxymethoxyphenyl)-2-(6,7-dihydroxy-4-oxo-4H-1-benzopyran-3-carboxamido)-acetamido]-3-(4-carbamoylpyridinium)methyl-3-cephem-4-carboxylate] | 25 | 0.8 | ≤ 0.05 | 6.25 | 0.1 | 0.8 | 38 | ≥ 300 |
| Cc1oc2cc(O)c(O)cc2c(=O)c1C(=O)N[C@@H](C(=O)N[C@@H]1C(=O)N2C(C(=O)[O-])=C(C[n+]3ccc(C(N)=O)cc3)CS[C@H]12)c1ccc(OCC(=O)O)cc1 [Example 41, Sodium 7β-[D-2-(4-carboxymethoxyphenyl)-2-(6,7-dihydroxy-2-methyl-4-oxo-4H-1-benzopyran-3-carboxamido)acetamido]-3-(4-carbamoylpyridinium)-methyl-3-cephem-4-carboxylate] | 50 | 0.4 | ≤ 0.05 | 6.25 | 0.2 | 0.4 | 74 | ≥ 300 |
| O=C(O)COc1ccc([C@@H](NC(=O)c2coc3c(O)c(O)ccc3c2=O)C(=O)N[C@@H]2C(=O)N3C(C(=O)O)=C(CSc4nnnn4CC(=O)O)CS[C@H]23)cc1 [Example 20, Trisodium 7β-[D-2-(4-carboxymethoxyphenyl)-2-(7,8-dihydroxy-4-oxo-4H-1-benzopyran-3-carboxamido)-acetamido]-3-(1-carboxymethyl-5-tetrazolyl)thiomethyl-3-cephem-4-carboxylate] | 100 | 0.8 | 0.1 | 6.25 | 0.8 | 0.8 | 16 | – |
| Cc1oc2c(O)c(O)ccc2c(=O)c1C(=O)N[C@@H](C(=O)N[C@@H]1C(=O)N2C(C(=O)O)=C(CSc3nnnn3CC(=O)O)CS[C@H]12)c1ccc(OCC(=O)O)cc1 [Example 27, Trisodium 7β-[D-2-(4-carboxymethoxyphenyl)-2-(7,8-dihydroxy-2-methyl-4-oxo-4H-1-benzopyran-3-carboxamido)acetamido]-3-(1-carboxymethyl-5-tetrazolyl)-thiomethyl-3-cephem-4-carboxylate] | 100 | 0.4 | ≤ 0.05 | 6.25 | 0.8 | 0.8 | 30 | – |
| CCn1cc(C(=O)N[C@@H](C(=O)N[C@@H]2C(=O)N3C(C(=O)O)=C(CSc4nnnn4C)CS[C@H]23)c2ccc(OCC(=O)O)cc2)c(=O)c2cc(O)c(O)cc21 [Example 12, 7β-[D-2-(4-Carboxymethoxyphenyl)-2-(6,7-dihydroxy-1,4-dihydro-1-ethyl-4-oxoquinolin-3-carboxamido)-acetamido]-3-(1-methyl-5-tetrazolyl)thiomethyl-3-cephem-4-carboxylic acid] | 50 (≈ 65.2 µM) | 0.4 (≈ 0.522 µM) | ≤ 0.05 | 1.56 (≈ 2.03 µM) | 0.1 (≈ 0.13 µM) | ≤ 0.05 | – | – |
